Values joined by “and” are separate entries in the source; they are usually repeats but may differ in a detail not shown here. Identical values can stand only once.
How the values were obtained:
iAMs [1] = assay: TUNEL assay in H2O2-treated iAMs; format: cell-based, rat; design: In vitro TUNEL assay: unit not given here
Description: To assess apoptosis, a TUNEL assay was performed using the In Situ Cell Death Detection Kit, Fluorescein (Merck, 11684795910) according to the manufacturer’s instructions. After the 4-h incubation, the cells were fixed with 4% paraformaldehyde for 15 min at room temperature, followed by permeabilization with 0.1% Triton X-100 in 0.1% sodium citrate for 2 min on ice. Cells were then incubated with the TUNEL reaction mixture in a humidified chamber at 37 °C for 1 h in the dark. After washing with PBS, the samples were analyzed using fluorescence microscopy to detect apoptotic cells. […]
1 on TUNEL staining (red).
positive cells (n=7 biological replicates in Veh group, n=9 biological replicates for H2O2/Veh group, n=11 […]

iCAGCre-Erbb4f/f mice = assay: AngII-induced fibrosis in iCAGCre-Erbb4f/f mice injected with corn oil without tamoxifen; format: in vivo, mouse
Source text: Floxed Erbb4 mice (Erbb4^f/f; C57BL/6N; 129-Erbb4tm1Fej/Mmucd, MMRRC, #010439-UCD) were crossed with CAGGCre-ER^TM mice (Jackson Laboratory, 004682) containing the Tg(CAG-cre/Esr1*)5Amc transgene that expresses Cre recombinase under the control of a chicken beta actin promoter/enhancer coupled to the human cytomegalovirus immediate-early gene enhancer, resulting in expression of tamoxifen-inducible Cre-ERT in most cell types. To induce Cre recombinase-mediated deletion of Erbb4, eleven-week-old female and male iCAGGCre-ER^TM/Erbb4^f/f mice were intraperitoneally injected with tamoxifen (Merck, T5648; 10 mg/kg; in corn oil) daily for 5 consecutive days.
Hearts were fixed in 4% PFA, paraffin-embedded, and cut into 5-µm sections. Images were acquired with an Olympus BX43 microscope (Olympus Stream Motion Software) or a CELENA® S Digital Imaging System and analyzed with ImageJ 2.14.0 software. Collagen distribution was visualized by Masson’s trichrome staining. Cardiac total fibrosis was expressed as the ratio of positively stained fibrotic area (blue) to the total area and perivascular fibrosis as the ratio of fibrotic area to vascular lumen area. Scar size was determined by measuring the scar length over the […]. Hypertrophy and vascularisation were visualized via an isolectin-B4/WGA/DAPI staining. Quantification was performed by a person blinded to the treatment protocol.
Supplementary Figure 6. Effect of AngII in male WT mice with compound NA-1 and the validation of genotype and phenotype of iCAGCre-Erbb4 f/f mice. […]
Uncropped gel is presented in Supplementary Figure 9. (c) Survival curve depicting the effects of 1000 ng/kg AngII treatment on mouse survival (ctrl = black line; 1000 ng/kg AngII = red line; n=6 male and female mice in Ctrl group and n=15 mice who received 1000 ng/kg AngII treatment). (d) Representative images of Masson’s trichrome staining of AngII-induced myocardial fibrosis in iCAGCre- […]
and n=10 male and female ice in AngII/Veh group). Scale bar = 500 µm for total fibrosis, scale bar = 50 µm for perivascular fibrosis. […]

ERBB1/ERBB1 = target: T1, ERBB1/ERBB1 (Homo sapiens, UniProt P00533); assay: PathHunter U2OS ERBB1/ERBB1 dimerization assay; format: cell-based; conditions: for ERBB1/ERBB1 dimerization signal: relative to signal with EGF, single biological replicates
T1 construct: host or cells: U2OS (osteosarcoma cells), PathHunter engineered line
Description: PathHunter U2OS ERBB4/ERBB4 (osteosarcoma cells; Eurofins, 93-0961C3), U2OS ERBB2/ERBB4 (osteosarcoma cells; Eurofins, 493-0960C3), ERBB2/ERBB3 (osteosarcoma cells; Eurofins, 93-1042C3) and ERBB1/ERBB1 (osteosarcoma cells; Eurofins, 93-0989C3) dimerization cell lines were cultured according to the manufacturer’s instructions. Briefly, cells were cultured in Cell Culture Reagent 103 (Eurofins, 92-3103 G) supplemented with 250 µg/mL Hygromycin B (Eurofins, 92-0029) and 500 µg/mL G418 (Eurofins, 92-0030), and were maintained at 37 °C in humidified atmosphere of 5% CO2. HCFs (Innoprot, P10454) were cultured in fibroblast medium (Innoprot, P60108) supplemented with 10% (v/v) fetal bovine serum (FBS, Innoprot), 10% (v/v) fibroblast growth supplement (Innoprot), and 1% (v/v) penicillin/streptomycin solution (Innoprot). iAMs[33] (kindly provided by LUMC) were cultured in Advanced DMEM F-12 (Thermo Fisher Scientific, 12634028) supplemented with 2% (v/v) heat-inactivated FBS (Thermo Fisher Scientific, 10270106), 1% (v/v) penicillin/streptomycin (10,000 units/mL and 10 mg/mL respectively, Thermo Fisher Scientific, 15140122), 1× GlutaMAX (Thermo Fisher Scientific, 35050061), and 100 ng/mL doxycycline (Tocris, 4090) for proliferation. To induce differentiation, iAMs were transferred to medium without doxycycline.
U2OS ERBB4/ERBB4 dimerization cells were seeded at a density of 5 × 10^4 cells/well in 100 µL Cell Plating 0 Reagent, in white 96-well plates (PerkinElmer, 6005680) and incubated for 24 h at 37 °C, 5% CO2. […] Next, 110 µL PathHunter Flash Detection Reagent was added to each well and incubated at RT for 1 h after which the luminescence signal was measured using the Luminoskan Ascent (Thermo Fisher Scientific). […] The same experimental set-up was used for the U2OS ERBB2/ERBB4, U2OS ERBB2/ERBB3 and U2OS ERBB1/ERBB1 dimerization cell lines.

iAMs [2] = assay: WST-1 cell viability assay in H2O2-treated iAMs; format: cell-based, rat; design: In vitro cell viability assay with WST-1: unit not given here
Description: Following the transfer of 150 µL of culture medium for the ToxiLight assay, 7 µL of WST-1 reagent (Merck, 5015944001) was added directly to the remaining cell culture medium in each well. The cells were incubated at 37 °C for an additional 4 h. After incubation, the absorbance of the samples was measured at 450 nm (690 nm was used as reference wavelength and subtracted) using a microplate reader (Epoch). […]

[3] = H2O2/EF-1, individual replicates

T1 sequence (P00533 25-1210): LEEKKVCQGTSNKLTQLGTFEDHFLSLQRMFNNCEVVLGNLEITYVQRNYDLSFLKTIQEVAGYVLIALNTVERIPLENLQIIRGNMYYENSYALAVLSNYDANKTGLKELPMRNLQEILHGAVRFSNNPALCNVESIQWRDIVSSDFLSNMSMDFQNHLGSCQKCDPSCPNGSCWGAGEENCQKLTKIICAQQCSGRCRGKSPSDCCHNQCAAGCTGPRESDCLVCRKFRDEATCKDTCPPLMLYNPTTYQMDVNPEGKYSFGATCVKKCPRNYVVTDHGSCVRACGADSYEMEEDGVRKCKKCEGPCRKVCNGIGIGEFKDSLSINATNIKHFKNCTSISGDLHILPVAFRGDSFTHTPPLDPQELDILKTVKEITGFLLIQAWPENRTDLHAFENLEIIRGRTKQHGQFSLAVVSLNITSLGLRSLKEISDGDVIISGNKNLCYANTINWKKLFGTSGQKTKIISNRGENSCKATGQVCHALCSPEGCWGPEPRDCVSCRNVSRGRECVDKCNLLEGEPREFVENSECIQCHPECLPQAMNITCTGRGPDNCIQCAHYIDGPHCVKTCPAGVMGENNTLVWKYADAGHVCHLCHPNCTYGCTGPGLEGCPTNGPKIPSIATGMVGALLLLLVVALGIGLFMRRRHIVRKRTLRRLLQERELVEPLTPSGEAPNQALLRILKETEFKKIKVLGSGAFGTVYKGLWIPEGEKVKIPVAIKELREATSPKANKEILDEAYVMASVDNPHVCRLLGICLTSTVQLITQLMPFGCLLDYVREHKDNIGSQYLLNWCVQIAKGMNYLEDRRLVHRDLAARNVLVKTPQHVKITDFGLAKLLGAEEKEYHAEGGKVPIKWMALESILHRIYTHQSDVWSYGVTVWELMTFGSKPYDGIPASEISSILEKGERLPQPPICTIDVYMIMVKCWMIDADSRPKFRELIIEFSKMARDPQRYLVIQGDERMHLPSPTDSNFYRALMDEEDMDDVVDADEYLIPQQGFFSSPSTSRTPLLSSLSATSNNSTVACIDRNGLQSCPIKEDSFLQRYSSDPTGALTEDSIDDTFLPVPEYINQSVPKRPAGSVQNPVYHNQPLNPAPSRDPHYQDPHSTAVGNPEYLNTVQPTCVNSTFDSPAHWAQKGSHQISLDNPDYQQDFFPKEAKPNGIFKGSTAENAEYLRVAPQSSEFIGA
T1 sequence (P00533 25-1210): as above

SMILES: O=C(NC1CC1)C(Sc1nc2ccccc2c(=O)n1C1CCCC1)c1ccccc1 (centres unmarked) [EF-1]
- number of TUNEL-positive (apoptotic) cells (in words) (iAMs [1]; 100 µM H2O2): significantly reduced this number
- In vitro TUNEL assay (iAMs [1]; [3]): 23.25 and 37.594 and 36.981 and 17.145 and 24.708 and 40.03 and 14.87 and 23.901 and 20.679 and 24.2124 and 24.656
- Perivascular fibrosis male+female in vivo corn oil-treated iCAGCre-Erbb4f/f mice with EF-1 (iCAGCre-Erbb4f/f mice; AngII/EF-1, individual animals): 0.8706 and 1.275 and 0.6537 and 2.675 and 0.6132 and 2.541 and 1.901 and 0.8014
- Total fibrosis male+female in vivo corn oil-treated iCAGCre-Erbb4f/f mice with EF-1 (iCAGCre-Erbb4f/f mice; AngII/EF-1, individual animals): 3.59 and 3.39 and 3.18 and 4.74 and 4.82 and 3.84 and 3.53 and 4.29 and 4.51
- inhibitory effects on AngII-induced interstitial and perivascular fibrosis (in words) (iCAGCre-Erbb4f/f mice; iCAGCre-Erbb4f/f mice injected with corn oil without tamoxifen): preserved
- EC50 (ERBB1/ERBB1): > 32 µM
- ERBB1/ERBB1 dimerization signal (ERBB1/ERBB1; 3.125e-8 M): 0
- ERBB1/ERBB1 dimerization signal (ERBB1/ERBB1; 6.25e-8 M): 8.38 and 6.13 and 6.6 and 7.02 and 4.04 and 2.46
- ERBB1/ERBB1 dimerization signal (ERBB1/ERBB1; 1.25e-7 M): 4.23 and 2.21 and 2.75 and 1.65 (2×) and 1.93
- ERBB1/ERBB1 dimerization signal (ERBB1/ERBB1; 2.5e-7 M): 5.73 and 2.08 and 2.79 and 4.91 and 2.29 and 1.1
- ERBB1/ERBB1 dimerization signal (ERBB1/ERBB1; 5e-7 M): 5.49 and 1.35 and 1.39 and 3.65 and 1.57 and 0.45
- ERBB1/ERBB1 dimerization signal (ERBB1/ERBB1; 1e-6 M): 6.08 and 3.69 and 2.97 and 5.23 and 2.17 and 1.53
- ERBB1/ERBB1 dimerization signal (ERBB1/ERBB1; 2e-6 M): 8.8 and 4.67 and 6.18 and 5.92 and 4.48 and 3.39
- ERBB1/ERBB1 dimerization signal (ERBB1/ERBB1; 4e-6 M): 15.68 and 13.03 and 10.62 and 10.47 and 7.22 and 7.25
- ERBB1/ERBB1 dimerization signal (ERBB1/ERBB1; 8e-6 M): 28.31 and 23.51 and 19.8 and 20.63 and 14.67 and 14.01
- ERBB1/ERBB1 dimerization signal (ERBB1/ERBB1; 1.6e-5 M): 47.08 and 37.9 and 37.11 and 43.5 and 44.59 and 32.06
- ERBB1/ERBB1 dimerization signal (ERBB1/ERBB1; 3.2e-5 M): 67.98 and 64.53 and 62.88 and 78.66 and 59.73 and 53.27
- half-life with mouse microsomes: 15 min
- cell viability, WST-1 absorbance (in words) (iAMs [2]; 100 µM H2O2, pre-treatment with EF-1): significantly increased cell viability
- In vitro cell viability assay with WST-1 (iAMs [2]; [3]): 1.268 and 0.9224 and 0.7959 and 0.7633 and 0.6939 and 1.2898 and 0.9164 and 0.8058 and 0.7767 and 0.7185 and 1.306 and 0.9585 and 0.8456 and 0.8168 and 0.7703 and 1.242 and 0.9643 and 0.8304 and 0.8393 and 0.7321
